From ChEMBL document CHEMBL5096183, “Contemporary advances of cyclic molecules proposed for inflammation” (Eur J Med Chem, 2021)
≈ marks a conversion by molar mass, not a printed value.

Columns and labels:
[1] = Acute toxicity in PO dosed Wistar albino rat measured for 14 days; assay type: organism-based; settings: in vivo, time 14 day
Rattus norvegicus [2] = test: Anti-inflammatory activity against carrageenan-induced paw edema in Sprague-Dawley rat at 30 mg/kg, IP pretreated for 30 mins followed by carrageenan addition measured after 4 hrs relative to control; assay type: functional; settings: time 4.5 hrs
Rattus norvegicus [3] = test: Anti-inflammatory activity against carrageenan-induced paw edema in po dosed Wistar rat pretreated for 1 hrs followed by carrageenan addition measured after 3 hrs; assay type: functional; settings: time 4 hrs
Rattus norvegicus [4] = test: Acute ulcerogenic activity in 18 hrs fasted Wistar rat at 60 mg/kg, po treated for 6 hrs relative to control; assay type: functional
Rattus norvegicus [5] = test: Anti-inflammatory activity against carrageenan-induced paw edema in Wistar albino rat at 10 mg/kg, po pretreated for 1 hr followed by carrageenan addition measured after 6 hrs by plethysmometer relative to control; assay type: functional; settings: time 7 hrs
Rattus norvegicus [6] = test: Anti-inflammatory activity against carrageenan-induced paw edema in Wistar albino rat model assessed as inhibition of paw edema at 20 mg/kg, PO relative to control; assay type: functional
Rattus norvegicus [7] = test: Anti-inflammatory activity against carrageenan-induced paw oedema in 12 hrs fasted Albino rat assessed as inhibition of oedema formation administered intraperitoneally measured after 3 hrs relative to control; assay type: functional; settings: route ip
[8] = Ulcerogenic activity in 12 hrs fasted Albino rat assessed as ulcerogenic index at […] per day, po for 3 days; assay type: toxicity, organism-based; settings: in vivo, 72 h, time 3 day
Rattus norvegicus [9] = test: Anti-inflammatory activity against carrageenan induced paw edema in rat assessed as inhibition of paw edema at 12.5 mg/kg,PO pretreated for 1 hrs followed by carrageenan addition for 4 hrs by plethysmographic analysis relative to control; assay type: functional; settings: time 5 hrs
Rattus norvegicus [10] = test: Anti-inflammatory activity against formalin-induced foot paw edema in Wistar rat assessed as oedema inhibition at 10 mg/kg,po measured after 6 hrs by plethysmometric analysis relative to control; assay type: functional
Rattus norvegicus [11] = test: Anti-inflammatory activity against formalin-induced foot paw edema in Wistar rat assessed as oedema inhibition at 10 mg/kg,po measured after 1 hrs by plethysmometric analysis relative to control; assay type: functional
Rattus norvegicus [12] = test: Anti-inflammatory activity against carrageenan-induced paw edema in rat relative to control; assay type: functional
Rattus norvegicus [13] = test: Anti-inflammatory activity against formalin-induced foot paw edema in Wistar rat assessed as oedema inhibition at 10 mg/kg,po measured after 3 hrs by plethysmometric analysis relative to control; assay type: functional
RAW264.7 = test: Anti-inflammatory activity against LPS induced mouse RAW264.7 cells assessed as suppression of TNFalpha cytokine level at 20 uM incubated for 24 hrs by ELISA assay relative to control; assay type: functional
Rattus norvegicus [14] = test: Anti-inflammatory activity against carrageenan-induced hind paw edema in rat at 20 mg/kg, PO measured after 5 hrs relative to control; assay type: functional
Mus musculus [15] = test: Analgesic activity in albino […] mouse assessed as increase in reaction on paw licking at 100 mg/kg, po pretreated for 1 hrs followed by hot plate treatment measured after 90 mins by analgesiometer based analysis relative to control; assay type: functional; settings: time 2.5 hrs
Rattus norvegicus [16] = test: Anti-inflammatory activity against carrageenan-induced paw edema in Wistar rat at 20 mg/kg, po assessed as paw edema volume measured after 4 hrs by plethysmometric analysis relative to control; assay type: functional
Mus musculus [17] = test: Analgesic activity in hot plate induced thermal pain Swiss albino mouse model assessed as change in latency at 10 mg/kg, po measured at 1 to 2 hrs relative to control; assay type: functional; settings: time 1-2 hrs
Erythrocyte = test: Anti-inflammatory against heat induced human red blood cells assessed as inhibition of heat induced hemolysis by measuring membrane stabilization for at 100 ug/ml incubated for 30 mins relative to control; assay type: functional; settings: 0.5 h
Homo sapiens = species on record: Homo sapiens; test: Inhibition of proteinase (unknown origin) at 100 ug/ml using casein as substrate preincubated for 5 mins followed by addition of substrate for 20 mins relative to control; settings: dose 100.0 µg/ml
Rattus norvegicus [18] = test: Anti-inflammatory activity against Cotton pellets induced granuloma in Albino rat at 20 mg/kg, po administered for 7 days measured on day 8 by measuring pellet weight relative to control; assay type: functional; settings: time 8 day
Rattus norvegicus [19] = test: Antiulcer activity against ulceration induced albino Wistar rat assessed as ulcerogenic index pretreated daily at 25 mg/kg for 4 days followed by 24 hrs fasting prior to pylorus ligation measured after 4 hrs; assay type: functional; settings: time 124 hrs
[20] = Inhibition of soy 15-LOX enzyme immunoassay; set-up: species or system Glycine max
[21] = molecular target: T1, Seed linoleate 13S-lipoxygenase-1 (Glycine max) (UniProt P08170); test: Binding affinity to soybean LOX-1 assessed as quenching ability by fluorescence based assay relative to control
T1 sequence (whole entry): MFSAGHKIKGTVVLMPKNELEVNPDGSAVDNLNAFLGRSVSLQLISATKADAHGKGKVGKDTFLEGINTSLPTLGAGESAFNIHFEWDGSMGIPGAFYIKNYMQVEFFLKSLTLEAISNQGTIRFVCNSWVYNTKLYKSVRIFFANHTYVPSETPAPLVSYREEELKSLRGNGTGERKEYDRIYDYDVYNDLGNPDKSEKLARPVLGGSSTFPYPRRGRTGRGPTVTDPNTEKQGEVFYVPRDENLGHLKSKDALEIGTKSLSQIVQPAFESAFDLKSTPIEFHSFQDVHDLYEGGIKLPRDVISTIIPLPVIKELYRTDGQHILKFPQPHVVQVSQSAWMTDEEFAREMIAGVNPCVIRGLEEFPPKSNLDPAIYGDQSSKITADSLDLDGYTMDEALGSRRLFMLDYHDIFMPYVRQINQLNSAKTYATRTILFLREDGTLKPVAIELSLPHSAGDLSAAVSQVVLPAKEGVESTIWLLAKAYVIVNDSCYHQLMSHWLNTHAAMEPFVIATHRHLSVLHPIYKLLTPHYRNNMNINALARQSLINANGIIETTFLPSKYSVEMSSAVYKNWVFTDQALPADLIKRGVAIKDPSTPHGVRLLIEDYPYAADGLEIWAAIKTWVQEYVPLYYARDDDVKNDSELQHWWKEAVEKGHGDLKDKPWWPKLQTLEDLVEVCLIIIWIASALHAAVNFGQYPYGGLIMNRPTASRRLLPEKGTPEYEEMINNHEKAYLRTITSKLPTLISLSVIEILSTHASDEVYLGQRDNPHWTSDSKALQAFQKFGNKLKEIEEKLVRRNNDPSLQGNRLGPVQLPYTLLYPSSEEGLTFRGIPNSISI

[22] = molecular target: T2, Seed linoleate 13S-lipoxygenase-1 (Glycine max, UniProt P08170); test: Inhibition of soybean LOX-1 using linoleic acid as substrate measured for 3 mins
T2 sequence (P08170 whole entry): T1 sequence (whole entry)

[23] = Antioxidant activity assessed as DPPH radical scavenging activity incubated for 20 mins by UV spectrometric analysis; assay type: functional

## O=C(Cc1cn(-c2ccccc2)nc1O)Nc1ccccc1-c1cc(-c2ccc(Br)cc2)n(-c2ccccc2)n1
[1]
  LD50 at 336 h: 2000 mg/kg

## CCOC(=O)CSc1nnc(Cc2ccccc2)n1C1CCCCC1
Rattus norvegicus [2]
  inhibition in vivo at 30 mg/kg: 62.5%

## CC(C)Cc1ccc(C(C)C(=O)O)cc1 (stereo not given) [IBUPROFEN]
Rattus norvegicus [3]
  ED50: 15 µmol/kg
Rattus norvegicus [4]
  Activity: 69.5%
Rattus norvegicus [5]
  inhibition in vivo at 10 mg/kg: 94.7%
Rattus norvegicus [6]
  inhibition in vivo at 20 mg/kg: 65.9%

## O=C(Nc1nc2ccccc2s1)C(Cc1cc2ccccc2[nH]1)N(C(=O)c1ccccc1)S(=O)(=O)c1ccc([N+](=O)[O-])cc1 (stereo not given)
Rattus norvegicus [7]
  inhibition (INH): 80%
[8]
  Activity_index: 0.82

## CC(C(=O)O)C(O)(c1ccccc1)c1ccccc1 (stereo not given)
Rattus norvegicus [3]
  ED50: 15 µmol/kg

## Cc1ccc(N(O)/N=N/c2ccc(S(=O)(=O)Nc3nc(C)cc(C)n3)cc2)cc1
Rattus norvegicus [9]
  inhibition in vivo at 12.5 mg/kg: 97.1%

## O=C(O)Cc1ccccc1Nc1c(Cl)cccc1Cl [DICLOFENAC]
Rattus norvegicus [10]
  inhibition in vivo at 10 mg/kg: 41.7%
Rattus norvegicus [11]
  inhibition in vivo at 10 mg/kg: 41.7%
Rattus norvegicus [12]
  Activity: 85.6%
Rattus norvegicus [9]
  inhibition in vivo at 12.5 mg/kg: 94%
Rattus norvegicus [13]
  inhibition in vivo at 10 mg/kg: 40.7%

## O=C1/C(=C\c2ccc(F)cc2)C=C(c2ccc(F)cc2)N1Cc1ccc(F)cc1
RAW264.7
  Activity: 65.03%
Rattus norvegicus [14]
  inhibition in vivo at 20 mg/kg: 76.2%

## Cc1ccc(-c2nnc(CCC(=O)N/N=C3\C(=O)Nc4ccccc43)o2)cc1
Mus musculus [15]
  Activity: 83.17%

## COc1ccccc1OC(=O)c1cc(OC)c(OC)c(OC)c1
Rattus norvegicus [16]
  inhibition in vivo at 20 mg/kg: 77.1%

## CN1C(C(=O)Nc2ccccn2)=C(O)c2ccccc2S1(=O)=O [PIROXICAM]
Mus musculus [17]
  inhibition in vivo at 10 mg/kg: 75%

## C(=N\c1ccccc1-c1nc2ccccc2o1)/c1cccs1
Erythrocyte
  inhibition at 100 µg/mL: 70.2%
Homo sapiens
  inhibition: 75.2%

## O=C([O-])Cc1ccccc1Nc1c(Cl)cccc1Cl.[Na+] [DICLOFENAC SODIUM]
Rattus norvegicus [18]
  Activity: 60.2%
Rattus norvegicus [4]
  Activity: 64.7%
Rattus norvegicus [19]
  Activity: 4.67

## Cc1ccc(Cl)c(Nc2ccccc2C(=O)O)c1Cl [MECLOFENAMATE SODIUM]
[20]
  IC50: 5.64 µM

## S=c1oc(-c2csc(-c3ccccc3)n2)nn1CN1CCCCC1
Rattus norvegicus [19]
  Activity: 0.44

## COCc1nc2ccc3occc3c2o1
[21]
  Qmax: 76.3%
[22]
  IC50: 65.4 µM
[23]
  IC50: 360 µg/mL (≈ 1770 µM)

## O=C1/C(=C\c2ccc(F)cc2)C=C(c2ccc(F)cc2)N1Cc1ccccc1Cl
RAW264.7
  Activity: 60.9%
Rattus norvegicus [14]
  inhibition in vivo at 20 mg/kg: 71.5%

## O=Cc1cc2cccc(-c3nc4ccccc4o3)c2nc1Cl
Erythrocyte
  inhibition at 100 µg/mL: 74.3%
Homo sapiens
  inhibition: 80.2%

## CC(C)Cc1ccc(C(C)C(=O)c2ccc(OCc3cn(Cc4ccc([N+](=O)[O-])cc4)nn3)cc2O)cc1 (stereo not given)
Rattus norvegicus [5]
  inhibition in vivo at 10 mg/kg: 94.2%
